The values that follow are results of earlier work, collected in patent US6974685B2, “High production method of prenyl alcohol using saccharomyces cells” (Toyota Jidosha Kabushiki Kaisha 1, priority 2000, dated 2005).

This series concerns erg mutant of Saccharoinyces cerevisiae. The following applies: Curr. Genet., 18, 41-46 (1990).

As to `CC(C)=CCCC(C)=CCCC(C)=CCO` [FOH, farnesol], the farnesol production is listed as 1 mg/L.
